Measured values published in US10914726B2, “Method for evaluating protrusion-forming ability of cell spheroids” (priority 2017, dated 2021).

Assays:
MDA-MB231 cells [1] = experiment: Live/dead determination of gel-embedded cell spheroids treated with anticancer agents; assay type: cell-based, human; details: 48 hours, Batimastat 4 μM, Staurosporine 1 μM; for number of dead cells (share of cells) / Number of Dead cells / Number of Living cells: MDA-MB231 spheroid in Matrigel; for Number of Dead cells: green fluorescence cell nuclei counted; for Number of Living cells: red fluorescence cell nuclei counted
Protocol: (§1) The protrusion-forming ability of the cell spheroids of the cancer cells treated with various anticancer agents was examined. As the cancer cells, MDA-MB231 cells of a cultured cell strain established from a human breast cancer cells were used. MDA-MB 231 cells were cultured under a condition with a temperature of 37° C. and a CO2 concentration of 5 vol % in a culture medium of DMEM containing 10% FBS.
(§2) Two thousand MDA-MB 231 cells and 5 μL of 10×Spheroid Formation ECM (manufactured by Trevigen, Inc.) were mixed in a culture medium to prepare a cancer cell solution of which the final amount was adjusted to 50 μL using DMEM (phenol red free), and then 50 μL of the cancer cell solution was injected into one well of the U bottom plate for forming a cell spheroid “Prime Surface (registered trade mark) U plate” (manufactured by Sumitomo Bakelite Co., LTD.), followed by culturing the cells for 72 hours to form cell spheroids.
(§3) The culture medium was removed from the U bottom plate as much as possible by suction while paying attention not to suck the spheroids, followed by carefully adding 100 μL of Matrigel (manufactured by Corning Incorporated) to the well. The U bottom plate was allowed to stand in an incubator at 37° C. for 1 hour, and the gel was cured to construct a cell spheroid embedded in a gel.
100 μL of culture mediums containing L-Sulforaphane (final concentration: 10 μM), Batimastat (final concentration: 4 μM), Mitomycin C (final concentration: 10 μM), Paclitaxel (final concentration: 4 μM), or Staurosporine (final concentration: 1 μM) was added on the gel in which the cell spheroids were embedded, and then 0.1 μL ( 1/1000 of the culture medium amount) of “Nuclear ID green/red cell viability reagent” (manufactured by Enzo Life Science, Inc.) was further added thereto, followed by culturing them for 48 hours to infiltrate. By adding the live/dead determination reagent, the living cells were stained with red fluorescence and the dead cells were stained with green fluorescence. As a control, a cultivation in which a culture medium containing only the live/dead determination reagent was used was carried out in the same manner as the above-described cultivation except that the anticancer agents were not added.
The fluorescently labeled samples prepared in the above-described sections <Anticancer Agent Treatment and Treatment for Live/dead Determination> and <Anticancer Agent Treatment and Actin Staining> were imaged with a confocal laser microscope “FV 1200” (manufactured by Olympus Corporation). A 20-fold objective lens ([…]×20) was used to image, and the Z-slice interval was 2 μm. The total number of Z-slices was 60 to 100.
The series of plane tomographic image groups obtained by imaging the respective fluorescently labeled samples were superimposed to construct a stereoscopic image. The obtained stereoscopic image was binarized to obtain a binarized image.
For the binarized images obtained from the fluorescently labeled samples treated with the live/dead determination reagent, the number of cell nuclei of red fluorescence and green fluorescent were measured.

MDA-MB231 cells [2] = experiment: Evaluation of protrusion-forming ability of cell spheroids from stereoscopic image (central sphere volume ratio); assay type: cell-based, human; details: 48 hours, L-Sulforaphane 10 μM, Batimastat 4 μM, Mitomycin C 10 μM, Paclitaxel 4 μM, Staurosporine 1 μM
Protocol: as §1, §2
as §3, with “gel. […]” for “gel.”

SMILES	number of dead cells (share of cells) (MDA-MB231 cells [1])	Number of Dead cells (MDA-MB231 cells [1])	Number of Living cells (MDA-MB231 cells [1])	central sphere volume ratio ([volume of non-protrusion part]/[total volume of cell spheroid]) from stereoscopic image (MDA-MB231 cells [2]; FIG. 3, actin staining)	protrusion formation / protrusion-forming ability (MDA-MB231 cells [2]; stereoscopic image)	induction of cell death (MDA-MB231 cells [1]; MDA-MB231 spheroid)
CNC(=O)[C@H](Cc1ccccc1)NC(=O)[C@H](CC(C)C)[C@H](CSc1cccs1)C(=O)NO [Batimastat]	about 24%	562	1738	–	–	–
CO[C@@]12[C@H](COC(N)=O)C3=C(C(=O)C(C)=C(N)C3=O)N1C[C@@H]1N[C@@H]12 [Mitomycin C]	–	–	–	higher central sphere volume ratio as compared with the remaining three anticancer agent-treated samples	suppressed more strongly	–
CN[C@@H]1C[C@H]2O[C@@](C)([C@@H]1OC)n1c3ccccc3c3c4c(c5c6ccccc6n2c5c31)C(=O)NC4 [Staurosporine]	about 70%	1631 ± 414	576 ± 67	–	–	cell death was induced
